Laboratory results taken from ChEMBL document CHEMBL4177596, “Flavonoids and their derivatives with β-amyloid aggregation inhibitory activity from the leaves and twigs of Pithecellobium clypearia Benth” (Bioorg Med Chem Lett, 2017).
Activity calls are given as the source filed them. The calls are words filed in the database; no cut-off is given here.

Experiments:
[1] = biological target: Amyloid-beta precursor protein (Homo sapiens) (UniProt P05067); test: Inhibition of HFIP-pretreated amyloid beta (1 to 42) (unknown origin) self-induced aggregation at 20 uM incubated for 24 hrs under dark condition by thioflavin-T based fluorometric assay relative to control
SH-SY5Y [2] = test: Neuroprotective activity against H2O2-induced cell death in human SH-SY5Y cells assessed as increase in cell viability at 100 uM pretreated for 12 hrs followed by H2O2 challenge measured after 3 hrs by MTT assay; type: functional, cell-based
SH-SY5Y [3] = test: Neuroprotective activity against H2O2-induced morphological changes in human SH-SY5Y cells assessed as reduction in cell shrinkage at 100 uM by phase contrast microscopic analysis; type: functional, cell-based
SH-SY5Y [4] = test: Neuroprotective activity against H2O2-induced morphological changes in human SH-SY5Y cells assessed as reduction in appearance of apoptotic bodies at 100 uM by phase contrast microscopic analysis; type: functional, cell-based

Sequence of Amyloid-beta precursor protein (Homo sapiens) (P05067 whole entry): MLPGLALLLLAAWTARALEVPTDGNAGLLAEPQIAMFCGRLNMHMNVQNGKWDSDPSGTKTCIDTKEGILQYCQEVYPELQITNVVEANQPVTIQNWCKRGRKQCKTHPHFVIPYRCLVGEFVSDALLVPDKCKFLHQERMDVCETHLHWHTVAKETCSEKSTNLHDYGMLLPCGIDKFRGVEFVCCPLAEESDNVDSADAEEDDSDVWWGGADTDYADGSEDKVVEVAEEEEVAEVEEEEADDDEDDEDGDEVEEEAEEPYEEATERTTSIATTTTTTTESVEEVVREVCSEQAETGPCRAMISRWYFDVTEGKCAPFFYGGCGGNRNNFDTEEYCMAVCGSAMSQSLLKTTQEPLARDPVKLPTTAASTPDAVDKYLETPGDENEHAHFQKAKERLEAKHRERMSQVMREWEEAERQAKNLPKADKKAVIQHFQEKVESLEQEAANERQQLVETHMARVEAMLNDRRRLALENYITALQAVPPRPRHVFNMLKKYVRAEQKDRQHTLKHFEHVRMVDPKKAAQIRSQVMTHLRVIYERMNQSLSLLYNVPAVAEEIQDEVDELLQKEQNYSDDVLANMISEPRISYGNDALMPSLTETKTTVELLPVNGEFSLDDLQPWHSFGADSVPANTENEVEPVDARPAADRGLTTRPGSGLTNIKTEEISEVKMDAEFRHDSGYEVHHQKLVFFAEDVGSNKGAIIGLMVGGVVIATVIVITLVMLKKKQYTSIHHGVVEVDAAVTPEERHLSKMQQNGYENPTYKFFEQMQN

| SMILES | inhibition [1] | Activity (SH-SY5Y [2]) | Activity (SH-SY5Y [3]) | Activity (SH-SY5Y [4]) |
| --- | --- | --- | --- | --- |
| COc1cc(OC)c2c(c1)O[C@H](c1cc(O)c(O)c(OC)c1)[C@@H](O)C2 | Active | – | – | – |
| COc1cc(O)cc2oc(-c3ccc(O)cc3)cc(=O)c12 | Active | – | – | – |
| COc1cc(-c2cc(=O)c3c(OC)cc(O)cc3o2)ccc1O | Active | – | – | – |
| C[C@H]1O[C@H](Oc2c(-c3ccc(O)c(O)c3)oc3cc(O)cc(O)c3c2=O)[C@@H](O)[C@@H](O)[C@@H]1O | 70.7% | – | – | – |
| O=C(Oc1cc(O)c2c(c1)O[C@H](c1cc(O)c(O)c(O)c1)[C@@H](O)C2)c1cc(O)c(O)c(O)c1 | Active | Active | – | – |
| C[C@@H]1O[C@@H](Oc2c(-c3cc(O)c(O)c(O)c3)oc3cc(O)cc(O)c3c2=O)[C@H](O)[C@H](O)[C@H]1O | 62.2% | – | – | – |
| COc1cc(O)c(C[C@H](O)Cc2ccc(O)c(OC)c2)c(OC)c1 | Active | – | – | – |
| O=C(Oc1cc(O)c2c(c1)O[C@H](c1ccc(O)c(O)c1)[C@@H](O)C2)c1cc(O)c(O)c(O)c1 | Active | Active | – | – |
| O=C1c2ccc(O)c(O)c2O[C@H](c2ccc(O)c(O)c2)[C@H]1O | 87.7% | Active | Active | Active |
| Oc1cc([C@@H]2CCc3c(O)cccc3O2)cc(O)c1O | 59.6% | – | – | – |
| O=C(Oc1cc(O)c2c(c1)O[C@H](c1cc(O)c(OC(=O)c3cc(O)c(O)c(O)c3)c(O)c1)[C@@H](O)C2)c1cc(O)c(O)c(O)c1 | 56.3% | Active | – | – |
| O=c1c(O)c(-c2ccc(O)c(O)c2)oc2cc(O)cc(O)c12 | 88.4% | Active | – | – |
| O=C(Oc1cc(O)c2c(c1)O[C@@H](c1cc(O)c(O)c(O)c1)CC2)c1cc(O)c(O)c(O)c1 | Active | Active | – | – |
| O=C(O[C@@H]1Cc2c(O)cc(O)cc2O[C@@H]1c1cc(O)c(O)c(O)c1)c1cc(O)c(O)c(O)c1 | 86.1% | – | – | – |
| O=c1cc(-c2ccc(O)c(O)c2)oc2cc(O)cc(O)c12 | 86.5% | Active | – | – |
| C[C@@H]1Oc2cccc(O)c2C(=O)[C@@H]1O | Active | – | – | – |
